Assay results as given in patent publication US9796671B2, “Aurora kinase inhibitors” (REGENTS OF THE UNIVERSITY OF MINNESOTA, priority 2012, dated 2017).

Columns and labels:
HCT116 p53−/− cells = assay: Soft agar assay, p53-deficient colon cancer cells; type: cell-based; conditions: Homo sapiens, read-out: inhibition of growth in soft agar
Method: (§1) Tumor cells are suspended in basal medium Eagle (BME) medium and added to 0.6% agar, with different concentrations of Compound 1 in a base layer and a top layer of 0.3% agar. The cultures are maintained at 37° C. in a 5% CO2 incubator for 1 to 2 weeks and then colonies are counted under a microscope using the Image-Pro Plus software (v.4) program (Media Cybernetics, Silver Spring, Md.).
The effect of compound 1 in a pair of colon cancer cell lines, p53 wildtype (HCT116 p53^+/+) and p53-deficient (HCT116 p53^−/−) cells was also examined to determine whether the sensitivity of cells to compound 1 directly correlates with the status of p53 in cells.

HCT116 cells = assay: Anchorage-independent growth (soft agar colony formation); type: cell-based; conditions: 0.5 μM
Method: FIGS. 3A and 3B. Compounds 1-8 suppress the anchorage-independent growth of HCT116 cells. The asterisk indicates a significant (* p<0.05, ** p<0.01) decrease in colony formation in cells treated with each compound compared with the DMSO treated control group. Two concentrations of each compound, 0.5 μM and 5 μM were tested. […] Compounds 2 and 4 had no effect.
as §1

Aurora A = target: T1, Aurora A (Homo sapiens, UniProt O14965); assay: Aurora A in vitro kinase assay; type: biochemical; conditions: 1 μM, compared with control
T1 construct: purchased Millipore
T1 sequence (O14965 1-403): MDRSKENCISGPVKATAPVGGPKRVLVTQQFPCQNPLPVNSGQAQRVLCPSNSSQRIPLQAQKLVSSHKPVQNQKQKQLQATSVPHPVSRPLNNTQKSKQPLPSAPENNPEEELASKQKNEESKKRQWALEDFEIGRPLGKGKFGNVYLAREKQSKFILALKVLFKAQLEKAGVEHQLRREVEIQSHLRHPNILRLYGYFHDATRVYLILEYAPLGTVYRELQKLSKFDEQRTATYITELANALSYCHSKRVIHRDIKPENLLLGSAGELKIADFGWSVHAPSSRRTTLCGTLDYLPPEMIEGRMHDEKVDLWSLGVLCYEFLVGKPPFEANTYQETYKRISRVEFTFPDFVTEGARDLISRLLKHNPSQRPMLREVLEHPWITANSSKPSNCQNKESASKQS
Method: Proteins are resolved by SDS-PAGE and transferred onto polyvinylidene difluoride membranes (Millipore, Mass.), which are blocked with nonfat milk and hybridized with specific primary antibodies. The protein bands are visualized using an enhanced chemiluminescence reagent (GE Healthcare, Pittsburgh, Pa.) after hybridization with a horseradish peroxidase-conjugated secondary antibody. […] Reactions are carried out in 1× kinase buffer (25 mM Tris-HCl pH 7.5, 5 mM beta-glycerophosphate, 2 mM dithiothreitol (DTT), 0.1 mM Na3VO4, 10 mM MgCl2 and 5 mM MnCl2) containing 100 μM ATP at 30° C. for 30 minutes. Reactions are stopped and proteins detected by Western blotting. An in vitro kinase assay was used to determine whether Compound 1 could inhibit Aurora B kinase activity using recombinant Aurora B protein and various concentrations of Compound 1. […] The effect of Compound 1 on Aurora A kinase activity using an in vitro kinase assay was also examined.

[1] = system: A549 cells transfected with Aurora B shRNA; assay: Anchorage-independent growth, Aurora B knockdown cells; type: cell-based; conditions: Homo sapiens
Method: as §1
The effect of knocking down Aurora B expression in A549 cancer cells on the cell's sensitivity to Compound 1 was evaluated. […] Compound 1 (0.5 μM) inhibited anchorage-independent growth of A549 cells transfected with mock shRNA by about 90%.

MRC-5 normal lung cells = assay: Cytotoxicity (MTS assay); type: cell-based
Method: To estimate the cytotoxicity of Compound 1, cells are seeded (8×10^3 cells per well) in 96-well plates and cultured overnight. Cells are fed with fresh medium and treated with different doses of Compound 1. After culturing for various times, the cytotoxicity of Compound 1 is measured using an MTS assay kit (Promega, Madison, Wis.) according to the manufacturer's instructions.
The toxicity of Compound 1 on both MRC-5 normal lung cells and A549 lung cancer cells was then examined.

[2] = system: phosphorylation of Akt (Ser473), GSK3β (Ser9), p70S6K (Thr389) and S6 (Ser235,236) in H520 cells; assay: Western blot of Akt and downstream signaling in cells; type: cell-based, human
Description: (§2) Proteins are resolved by SDS-PAGE and transferred onto polyvinylidene difluoride membranes (Millipore, Mass.), which are blocked with nonfat milk and hybridized with specific primary antibodies. The protein bands are visualized using an enhanced chemiluminescence reagent (GE Healthcare, Pittsburgh, Pa.) after hybridization with a horseradish peroxidase-conjugated secondary antibody.
(§3) According to the kinase profiler assay results, Akt2 also might be a potential target of Compound 1. An Akt1 and Akt2 in vitro kinase assays was performed.

[3] = system: phosphorylation of Akt (Ser473), GSK3β (Ser9), p70S6K (Thr389) and S6 (Ser235,236) in A549 cells; assay: as above; type: cell-based, human
Description: as §2, §3

H520 cells = assay: Cell cycle analysis (flow cytometry); type: cell-based, human; conditions: H520, 48 hours
Method: (§4) Cells are plated in 60-mm plates and treated or not treated with Compound 1 for the indicated time. At each time point, cells are fixed in 70% ethanol and stored at −20° C. for 24 h. After staining, the cell cycle distribution or apoptosis is determined using a BD FACSCalibur Flow Cytometer (BD Biosciences, San Jose, Calif.). Aurora B inhibition leads to failure in cytokinesis and abnormal exit from mitosis, which could result in polyploidy cells, cell cycle arrest, and ultimately apoptosis. The ability to induce polyploidy cells was further examined in A549 cells treated or not treated with Compound 1. […] In addition, Compound 1 treatment for 48 hours caused an increase in the number of A549 and H520 cells occupying the G2/M phase. Moreover, exposure of these cells to Compound 1 for 72 hours induced apoptosis as measured by Annexin V/PI staining. For example, exposure to 5 μM Compound 1 induced 48% or 82% apoptosis in A549 cells and H520 cells, compared to 8% or 38% in untreated control cells, respectively.

A549 cells = assay: Cell cycle analysis (flow cytometry); type: cell-based, human; conditions: A549, 48 hours
Method: as §4

Which results are given for `O=C(/C=C/c1ccc2c(c1)OCO2)/C=C1/C(=O)Nc2ccccc21` [Compound 1]?
inhibition at 0.05 µM (HCT116 p53−/− cells; HCT-116, 0.05 μM): 40%; inhibition at 0.1 µM (HCT116 p53−/− cells; HCT-116, 0.1 μM): > 95%; anchorage-independent growth of HCT116 cells (colony formation) (HCT116 cells): best efficiency; effect on histone H3 (Ser10) phosphorylation by Aurora A (Aurora A): No effect; inhibition at 0.5 µM [1]: < 40%; cytotoxic effects on MRC-5 normal lung cells (MRC-5 normal lung cells; 1 μM or less): no obvious cytotoxic effects; toxicity to MRC-5 normal cells (MRC-5 normal lung cells; 5 μM, 48 hours): not; toxicity on MRC-5 normal lung cells (MRC-5 normal lung cells; concentrations greater than 10 μM): substantial toxicity; effect on the phosphorylation of Akt or its downstream signaling molecules [2]: no effect; effect on the phosphorylation of Akt or its downstream signaling molecules [3]: no effect; number of cells occupying the G2/M phase (H520 cells): increase; number of cells occupying the G2/M phase (A549 cells): increase
